Reference: patent publication US20200069592A1, “HSP90 INHIBITOR ORAL FORMULATIONS AND RELATED METHODS” (Samus Therapeutics, Inc., priority 2017, published 2020)

What was measured:
[1] = Plasma pharmacokinetics after single oral dose in ORA-Plus or SyrSpend SF (Example 6), LC-MS/MS; assay type: in vivo, Sprague Dawley rats; settings: for AUC % Extrap / Cl_F / Vz_F / AUC(0-inf) / AUC(0-t) / Cmax / Tmax / half-life: rat plasma; for % AUC0-last test vs reference: rats, ratio of group averages; for AUC(0-inf) / AUC(0-t) / Cmax / Tmax / half-life: female, rat, plasma, po
[2] = Plasma pharmacokinetics after single PO or IV administration (Example 5), LC-MS/MS; settings: for Tmax / AUC(0-t) / Cmax: female, rat, plasma, free base; for Tmax: Tmax (hr) Mean ± StdDev; for AUC(0-t): AUC0-last (hr*ng/mL) Mean ± StdDev; for Cmax: Cmax (ng/mL) Mean ± StdDev
Procedure: The animals used in this study were female Sprague Dawley Rats physiologically normal. At the time of receipt, mice were 200-225 g in weight. […] Ninety-four total animals were observed thereafter. The parenteral administration is performed by tail vein injection.
Compound 2 was provided in free base form and stored at −20° C., protected from light. Compound 2 was formulated in dosage form immediately prior to use. For oral administration of Compound 2 in ORA-Plus® drinking solution, Compound 2 was suspended in drinking solution ORA-Plus® (Perrigo; Minneapolis, Minn.). First, a mortar and pestle were used to smooth out the Compound 2 powder, then a small amount of ORA-Plus® was added, and next, the mixture was triturated to a thick, smooth paste. The remainder of the ORA-Plus® was added by geometric dilution. The Compound 2 free base and ORA-Plus® mixture was dispensed in a tight, light resistant amber bottle with appropriate labeling. This mixture was shaken well before using, protected from light and kept refrigerated if dosing was delayed. For oral administration of Compound 2 in citric acid buffer with Captisol®, Compound 2 free base powder was dissolved or suspended into 30% Captisol® (Cydex Pharmaceuticals; Lawrence, Kans.) in 60 mM citrate buffer (pH˜4.2) (citric acid and sodium citrate dehydrate (Sigma-Aldrich; St. Louis Mo.)) in sterile water) to each group's working concentration. […] A magnetic stir-bar was used to mix dosing solution, followed by sonication. For intravenous administration, Compound 2 free base powder was dissolved into 15% Captisol® in 5 mM citrate buffer (pH˜4.2) to each group's working concentration. A magnetic stirbar was used to mix dosing solution, followed by sonication. IV dosing solution of Compound 2 free base was filtered with a 0.2 m PVDF filter (Pall Life Sciences; Port Washington, N.Y.) prior to administration.
Dose levels of Compound 1 were based on the free base, not the salt.
Animals were randomized using random equilibration of body weights on Day 1 into one of 19 study groups, as shown in Table 23 (Groups 1-19), with 5 animals in each group, except for the 4 animals in Group 19. Body weights were collected Days 1, 2, 3, and/or 4 to accommodate data collection of staggered groups. Gross observations of body weight were noted during the course of the study.

[3] = Tolerability (body weight, toxicity, maximum tolerated dose) in the Example 5 rat study; assay type: in vivo; settings: free base
Procedure: Ninety-four total animals were observed thereafter. The parenteral administration is performed by tail vein injection.

[4] = G1: free base, 24 mg/kg single oral dose, ORA-plus
[5] = G2: free base, 48 mg/kg single oral dose, ORA-plus, n = 4
[6] = G7: free base, 24 mg/kg single oral dose, SyrSpend, n = 4
[7] = G8: free base, 48 mg/kg single oral dose, SyrSpend
[8] = Sprague Dawley, 24 mg/kg, G1: free base, 24 mg/kg single oral dose, ORA-plus
[9] = Sprague Dawley, 48 mg/kg, G2: free base, 48 mg/kg single oral dose, ORA-plus
[10] = Sprague Dawley, 48 mg/kg, G2: free base, 48 mg/kg single oral dose, ORA-plus, n = 4
[11] = Sprague-Dawley, 24 mg/kg, G7: free base, 24 mg/kg single oral dose, SyrSpend
[12] = Sprague-Dawley, 24 mg/kg, G7: free base, 24 mg/kg single oral dose, SyrSpend, n = 4
[13] = Sprague-Dawley, 48 mg/kg, G8: free base, 48 mg/kg single oral dose, SyrSpend
[14] = 24 mg/kg PO, Group 1 (ORA-plus) relative to Group 5 (citrate buffer-Captisol)
[15] = 36 mg/kg PO, Group 2 (ORA-plus) relative to Group 6 (citrate buffer-Captisol)
[16] = 48 mg/kg PO, Group 3 (ORA-plus) relative to Group 7 (citrate buffer-Captisol)
[17] = 60 mg/kg PO, Group 4 (ORA-plus) relative to Group 8 (citrate buffer-Captisol)
[18] = Sprague Dawley, po, 24 mg/kg, Group 5: 24 mg/kg PO, 60 mM Citric acid buffer + 30% Captisol
[19] = Sprague Dawley, po, 36 mg/kg, Group 2: 36 mg/kg PO, ORA-Plus
[20] = Sprague Dawley, po, 36 mg/kg, Group 6: 36 mg/kg PO, 60 mM Citric acid buffer + 30% Captisol
[21] = Sprague Dawley, po, 48 mg/kg, Group 3: 48 mg/kg PO, ORA-Plus
[22] = Sprague Dawley, po, 48 mg/kg, Group 7: 48 mg/kg PO, 60 mM Citric acid buffer + 30% Captisol
[23] = Sprague Dawley, po, 60 mg/kg, Group 4: 60 mg/kg PO, ORA-Plus
[24] = Sprague Dawley, po, 60 mg/kg, Group 8: 60 mg/kg PO, 60 mM Citric acid buffer + 30% Captisol
[25] = Sprague-Dawley, iv, 12 mg/kg, Group 9: 12 mg/kg IV, 5 mM Citric acid buffer + 15% Captisol
[26] = Sprague-Dawley, iv, 24 mg/kg, Group 10: 24 mg/kg IV, 5 mM Citric acid buffer + 15% Captisol
[27] = Sprague-Dawley, po, 24 mg/kg, Group 1: 24 mg/kg PO, ORA-Plus, single dose

## CC(C)(C)CNCCn1c(Sc2cc3c(cc2I)OCO3)nc2c(N)ncnc21 [Compound 2]
[1]; [4]
  AUC % Extrap: 2.77 ± 0.30%
  Cl_F: 249.8 ± 24.2 mL/min/kg
  Vz_F: 50.18 ± 39.85 L/kg
[1]; [5]
  AUC % Extrap: 6.22 ± 6.79 %
  Cl_F: 177.2 ± 65.5 mL/min/kg
  Vz_F: 38.84 ± 10.64 L/kg
[1]; [6]
  AUC % Extrap: 6.89 ± 3.49 %
  Cl_F: 369.7 ± 105 mL/min/kg
  Vz_F: 88.96 ± 44.19 L/kg
[1]; [7]
  AUC % Extrap: 1.71 ± 1.37%
  Cl_F: 136 ± 105 mL/min/kg
  Vz_F: 44.20 ± 37.62 L/kg
[1]; Group 1 (24 mg/kg FB ORA-plus) vs Group 3 (24 mg/kg 2HCl ORA-plus)
  % AUC0-last test vs reference: 121.69%
[1]; Group 1 (24 mg/kg FB ORA-plus) vs Group 4 (48 mg/kg 2HCl ORA-plus)
  % AUC0-last test vs reference: 24.79%
[1]; Group 1 (24 mg/kg FB ORA-plus) vs Group 7 (24 mg/kg FB SyrSpend)
  % AUC0-last test vs reference: 123.40%
[1]; Group 1 (24 mg/kg FB ORA-plus) vs Group 9 (24 mg/kg 2HCl SyrSpend)
  % AUC0-last test vs reference: 133.31%
[1]; Group 2 (48 mg/kg FB ORA-plus) vs Group 4 (48 mg/kg 2HCl ORA-plus)
  % AUC0-last test vs reference: 70.46%
[1]; Group 2 (48 mg/kg FB ORA-plus) vs Group 8 (48 mg/kg FB SyrSpend)
  % AUC0-last test vs reference: 54.72%
[1]; Group 2 (48 mg/kg FB ORA-plus) vs Group 10 (48 mg/kg 2HCl SyrSpend)
  % AUC0-last test vs reference: 51.93%
[1]; Group 7 (24 mg/kg FB SyrSpend) vs Group 9 (24 mg/kg 2HCl SyrSpend)
  % AUC0-last test vs reference: 108.03%
[1]; Group 8 (48 mg/kg FB SyrSpend) vs Group 10 (48 mg/kg 2HCl SyrSpend)
  % AUC0-last test vs reference: 94.91%
[1]; [8]
  AUC(0-inf): 1610 ± 156 ng·h/mL
  AUC(0-t): 1570 ± 152 ng·h/mL
  Cmax: 579 ± 108 ng/mL
  Tmax: 1.4 ± 0.55 h
  half-life: 2.36 ± 1.98 h
[1]; [9]
  AUC(0-t): 4460 ± 2110 ng·h/mL
  Cmax: 803 ± 278 ng/mL
  Tmax: 2.8 ± 1.64 h
[1]; [10]
  AUC(0-inf): 5060 ± 2070 ng·h/mL
  half-life: 2.61 ± 0.44 h
[1]; [11]
  AUC(0-t): 1270 ± 524 ng·h/mL
  Cmax: 371 ± 196 ng/mL
  Tmax: 1 h
[1]; [12]
  AUC(0-inf): 1180 ± 451 ng·h/mL
  half-life: 2.78 ± 1.13 h
[1]; [13]
  AUC(0-inf): 8080 ± 4090 ng·h/mL
  AUC(0-t): 8140 ± 3550 ng·h/mL
  Cmax: 1030 ± 421 ng/mL
  Tmax: 3.4 ± 1.95 h
  half-life: 3.56 ± 1.03 h
[1]; single oral dose, free base or 2HCl, ORA-Plus or SyrSpend
  Time point up to which all animals had quantifiable plasma levels: ≥ 8 h
[2]; [14]
  % AUC0-last (hr*ng/mL) ORA vs Citrate Mean ± StdDev: 48.63 ± 15.03%
  % Cmax (ng/mL) ORA vs Citrate Mean ± StdDev: 47.65 ± 16.52%
[2]; [15]
  % AUC0-last (hr*ng/mL) ORA vs Citrate Mean ± StdDev: 91.18 +/− 72.46%
  % Cmax (ng/mL) ORA vs Citrate Mean ± StdDev: 89.97 +/− 82.63%
[2]; [16]
  % AUC0-last (hr*ng/mL) ORA vs Citrate Mean ± StdDev: 94.75 +/− 64.83%
  % Cmax (ng/mL) ORA vs Citrate Mean ± StdDev: 99.04 +/− 80.01%
[2]; [17]
  % AUC0-last (hr*ng/mL) ORA vs Citrate Mean ± StdDev: 75.93 +/− 63.12%
  % Cmax (ng/mL) ORA vs Citrate Mean ± StdDev: 83.99 +/− 73.13%
[2]; Sprague Dawley, iv, 12 mg/kg, Group 9: 12 mg/kg IV, 5 mM Citric acid buffer + 15% Captisol
  Tmax: 0.25 h
[2]; [18]
  AUC(0-t): 2010 ± 176 ng·h/mL
  Cmax: 685 ± 109 ng/mL
  Tmax: 1.8 ± 0.45 h
[2]; [19]
  AUC(0-t): 2680 ± 811 ng·h/mL
  Cmax: 747 ± 238 ng/mL
  Tmax: 1.5 ± 1.41 h
[2]; [20]
  AUC(0-t): 2940 ± 1570 ng·h/mL
  Cmax: 831 ± 618 ng/mL
  Tmax: 2.4 ± 2.07 h
[2]; [21]
  AUC(0-t): 5220 ± 2760 ng·h/mL
  Cmax: 1240 ± 519 ng/mL
  Tmax: 2.7 ± 1.79 h
[2]; [22]
  AUC(0-t): 5510 ± 2590 ng·h/mL
  Cmax: 1400 ± 626 ng/mL
  Tmax: 1.4 ± 0.55 h
[2]; [23]
  AUC(0-t): 3560 ± 906 ng·h/mL
  Cmax: 909 ± 302 ng/mL
  Tmax: 3 ± 2.74 h
[2]; [24]
  AUC(0-t): 4750 ± 3070 ng·h/mL
  Cmax: 1080 ± 584 ng/mL
  Tmax: 4.4 ± 1.67 h
[2]; [25]
  AUC(0-t): 3390 ± 402 ng·h/mL
  Cmax: 2360 ± 92.7 ng/mL
[2]; [26]
  AUC(0-t): 7500 ± 552 ng·h/mL
  Cmax: 5110 ± 416 ng/mL
  Tmax: 0.25 h
[2]; [27]
  AUC(0-t): 975 ± 304 ng·h/mL
  Cmax: 321 ± 111 ng/mL
  Tmax: 0.9 ± 0.22 h
[3]; female, Sprague Dawley, rat, in vivo, iv, intravenously administered, rats, read-out: Maximum tolerated dose
  MTD: 24 mg/kg
[3]; higher oral doses (above 24 mg/kg), data not shown
  Body weight and toxicity: minimal effects on body weight and limited toxicity
